Structures can show the parent of a compound that is named as a salt. Where two headings read alike, the source gives them in different places.
Experiments:
oral mucosa [1] = assay: Visual assessment of delivery sites for damage or irritation of mucosal tissues; type: in vivo, human; settings: 3 mg particles 38-53 μm, needleless syringe, 24-48 hours after delivery, 14 subjects
Description: A randomized, double-blind, negatively controlled study was carried out in normal, healthy human subjects as follows. Initially, a single 3 mg dose of lignocaine HCL particles sized between 38 and 53 μm was delivered from a needleless syringe constructed in accordance with the invention. The lignocaine was delivered to the oral mucosa adjacent to the number 12 and 22 lateral incisors in 14 trial subjects. The delivery sites were then visually assessed for evidence of damage or irritation to the mucosal tissues.

oral mucosa [2] = system: oral mucosa; design: species or system human; settings: in vivo
Description: In a second study, a single 3.0 mg dose of lignocaine HCL particles (as above) was delivered using a needleless syringe, and a single 0.2 mL dose of 2% lignocaine HCL was delivered via needle-syringe injection. Pain associated with the administration of each treatment was scored in all 14 subjects using a 100 mm visual analogue scale immediately after each treatment, wherein 100% indicates a painful treatment, and 0% indicates a pain-free treatment. The needleless syringe employed in the study was operated using 40 bar helium driving gas to expel anaesthetic particles from a flexible, eversible dome-shaped membrane comprised of a 400 μm, 6 mm polyurethane film.

oral mucosa [3] = assay: Local anaesthesia: pain response to probing of treated oral mucosa, visual analogue scale; type: in vivo, human; settings: 3.0 mg particles by needleless syringe
Description: A randomized, double-blind study was then carried out as follows. Treatments were given to 14 subjects over the course of three visits. The treatments provided to the subjects in each visit were either a single 3.0 mg dose of Lignocaine HCL particles from the above-described needleless syringe device, or 0.0 mg (as a blinded negative control). Accordingly, treatments provided over the course of the three visits were either: two actual (3.0 mg) doses of the anaesthetic particles and one placebo; or two placebos and one actual (3.0 mg) dose. Pain stimulus was provided by probing oral mucosa with the back of a 27G dental needle, wherein the probe sequence was a probe on an untreated area of the mucosa, and then a probe on the treated area of the mucosa 1 minute post delivery. Again, the pain associated with the probe of the untreated and treated areas was scored on visual analogue scales using the above scoring methods immediately after each probe.

[4] = Serum testosterone pharmacokinetics after transmucosal (OralJect needleless syringe) or subcutaneous delivery; type: in vivo, female New Zealand White rabbit; settings: for Cmax: 2 mg
Description: Testosterone (Sigma Chemicals) was milled and sieved into a particle size range (approximately 50-100 μm) suitable for transmucosal delivery from a needleless syringe using standard stainless steel mesh sieves. Female New Zealand White rabbit subjects weighing between 2.2-2.8 kg were used and allowed food and water ad libitum. The rabbits (n=8) were randomly assigned to one of two treatment groups. The first treatment group received testosterone (2.0 mg dose) as a suspension in 35% polyvinylpyrrolidone C-30 in water (6 mg/g testosterone concentration) via subcutaneous injection. The second treatment group received testosterone (2.0 mg dose of testosterone particles ranging from 53-75 μm) as two 1.0 mg transmucosal administrations from an OralJect™ needleless syringe device abutted against the cheek mucosa.
Whole blood (1.0 ml) was taken at times 0, 0.5, 1, 2, 4, 6, 8, 12, 24 and 48 hours, the serum aspirated and assayed for testosterone by radioimmunoassay (DPC). The OralJect™ device is a prototype device of the present invention that is actuated by helium at 40 bar.

Row | Compound | tissue reaction at delivery site (oral mucosa [1]) | pain associated with administration (mean VAS score) (oral mucosa [2]) [%] | level of local anaesthesia relative to placebo treatments (oral mucosa [3]; 1 minute post delivery) | pain response score to probe of treated area (mean VAS) (oral mucosa [3]; probe 1 minute post delivery, untreated probe 55.6%, placebo 30.6%) [%] | Cmax comparison between treatments ([4]; OralJect transmucosal vs subcutaneous, 2.0 mg, rabbit) | pharmacokinetic profile, transmucosal vs subcutaneous ([4]; OralJect transmucosal vs subcutaneous, rabbit) | % BA (% bioavailability) ([4]; OralJect transmucosal, 2.0 mg, rabbit) [%] | time of second minor peak of serum testosterone ([4]; OralJect transmucosal, post administration, possible depot effect) [h] | Cmax ([4]; rabbit, serum, OralJect transmucosal (cheek mucosa), 2 x 1.0 mg particles 53-75 μm, helium 40 bar, rabbit, read-out: Cmax (mean maximum serum concentration)) [nM] | Cmax ([4]; rabbit, serum, sc, subcutaneous injection, 2.0 mg suspension in 35% polyvinylpyrrolidone C-30 in water, rabbit, read-out: Cmax (mean maximum serum concentration)) [nM] | Cmax ([4]; rabbit, serum, sc, subcutaneous injection, 2.0 mg, rabbit, read-out: Cmax range) [nM] | Tmax ([4]; rabbit, serum, OralJect transmucosal, 2.0 mg, in all animals) [min]
1 | CCN(CC)CC(=O)Nc1c(C)cccc1C [lignocaine HCL, lignocaine hydrochloride] | no evidence of any tissue reaction was observed | 49.9 | superior level of local anaesthesia relative to the placebo treatments | 15.0 |  |  |  |  |  |  |  | 
2 | C[C@]12CC[C@H]3[C@@H](CCC4=CC(=O)CC[C@@]43C)[C@@H]1CC[C@@H]2O [testosterone] |  |  |  |  | not significantly different between treatments although there was a tendency for it to be lower following OralJect™ administration | markedly different from that achieved following subcutaneous administration | ~48.3 | 12 | 25.5 ± 3.5 | 34.8 ± 6.9 | 26.9 to 55.2 | 30

— patent publication US6010478A, “Trans-mucosal particle delivery” (PowderJect Research Limited, priority 1995, dated 2000)
